What was measured:
Type in all cases: in vivo
[1] = test system: Matricaria inodora (MATIN); test: Post-emergence herbicidal action, greenhouse pot test (also comparative test C); details: Tripleurospermum inodorum, 504 h, read-out: Post-emergence action against MATIN in %; for pest or weed control at 5 g/ha: dosage 5 g/ha; for pest or weed control at 20 g/ha: dosage 20 g/ha
How it was run: (§1)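 Visual rating against untreated controls, about 3 weeks after spraying, from 0% (like control) to 100% (plants dead). Weeds were treated at the one-leaf stage, 2–3 weeks after sowing in sandy loam, with aqueous WP/EC spray containing 0.5% additive at 600 l/ha. Doses were ≤20 g/ha, or ≤5 g/ha for comparative test C.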

[2] = test system: Alopecurus myosuroides (ALOMY); test: as above; details: Alopecurus myosuroides, 504 h, rated visually after about 3 weeks vs untreated controls, 100% = plants have died; for pest or weed control at 5 g/ha: read-out: Post-emergence action at 5 g/ha against ALOMY in %; for pest or weed control at 20 g/ha: read-out: Post-emergence action at 20 g/ha against ALOMY in %
How it was run: as §1

[3] = test system: Echinochloa crus-galli (ECHCG); test: as above; details: for Post-emergence action at 1.25 g/ha against ECHCG in %: rated visually after about 3 weeks vs untreated controls, 100% = plants have died; for pest or weed control at 5 g/ha / pest or weed control at 20 g/ha: Echinochloa crus-galli, 504 h, read-out: Post-emergence action against ECHCG in %; for pest or weed control at 5 g/ha: dosage 5 g/ha; for pest or weed control at 20 g/ha: dosage 20 g/ha
How it was run: as §1

Setaria viridis (SETVI) = test: as above; details: Setaria viridis, 504 h; for pest or weed control at 20 g/ha: read-out: Post-emergence action against SETVI; for pest or weed control at 1.25 g/ha: dosage 1.25 g/ha; for pest or weed control at 1.25 g/ha / pest or weed control at 5 g/ha: read-out: Post-emergence action against SETVI in %; for pest or weed control at 5 g/ha: dosage 5 g/ha
How it was run: as §1

Oryza sativa (ORYSA) = test: Post-emergence crop plant compatibility, greenhouse pot test (also comparative test C); details: for Post-emergence action against ORYSA (crop plant compatibility): vs untreated controls
How it was run: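 Visual damage versus untreated plants (0% = like control, 100% = plants died) was scored about 3 weeks after a post-emergence spray in greenhouse pots. Treatment: one-leaf stage, WP or EC in water at 600 l/ha with 0.5% additive; a/b/c mark different dosages on the same crop.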

[4] = test system: Amaranthus retroflexus (AMARE); test: Post-emergence herbicidal action, greenhouse pot test; details: Amaranthus retroflexus, 504 h, rated visually after about 3 weeks vs untreated controls, 100% = plants have died; for pest or weed control at 1.25 g/ha: read-out: Post-emergence action at 1.25 g/ha against AMARE in %; for pest or weed control at 5 g/ha: read-out: Post-emergence action at 5 g/ha against AMARE in %; for pest or weed control at 20 g/ha: read-out: Post-emergence action at 20 g/ha against AMARE in %
How it was run: (§2)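 Activity was scored by eye about 3 weeks after treatment against untreated plants, where 100% means dead plants and 0% means no difference. Plants at the one-leaf stage received a foliar spray of WP or EC formulations in water plus 0.5% additive (600 l/ha, up to 20 g/ha). Plants were grown in sandy loam pots in a greenhouse for 2–3 weeks before spraying.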

[5] = test system: Abutilon theophrasti (ABUTH); test: as above; details: Abutilon theophrasti, 504 h, rated visually after about 3 weeks vs untreated controls, 100% = plants have died; for pest or weed control at 1.25 g/ha: read-out: Post-emergence action at 1.25 g/ha against ABUTH in %; for pest or weed control at 5 g/ha: read-out: Post-emergence action at 5 g/ha against ABUTH in %; for pest or weed control at 20 g/ha: read-out: Post-emergence action at 20 g/ha against ABUTH in %
How it was run: as §2

Lolium rigidum (LOLRI) = test: as above; details: Lolium rigidum, 504 h, dosage 20 g/ha, read-out: Post-emergence action against LOLRI in %
How it was run: as §2

[6] = test system: Polygonum convolvulus (POLCO); test: as above; details: Fallopia convolvulus, 504 h, read-out: Post-emergence action against POLCO in %; for pest or weed control at 20 g/ha: dosage 20 g/ha
How it was run: as §2

[7] = test system: Pharbitis purpurea (PHBPU); test: as above; details: Ipomoea purpurea, 504 h, read-out: Post-emergence action against PHBPU in %; for pest or weed control at 5 g/ha: dosage 5 g/ha; for pest or weed control at 20 g/ha: dosage 20 g/ha
How it was run: as §2

Avena fatua (AVEFA) = test: as above; details: Avena fatua, 504 h, 20 g/ha, rated visually after about 3 weeks vs untreated controls, 100% = plants have died, read-out: Post-emergence action at 20 g/ha against AVEFA in %
How it was run: as §2

Veronica persica (VERPE) = test: as above; details: Veronica persica, 504 h, read-out: Post-emergence action against VERPE
How it was run: as §2

Viola tricolor (VIOTR) = test: as above; details: Viola tricolor, 504 h, read-out: Post-emergence action against VIOTR
How it was run: as §2

Zea mays (ZEAMX) = test: Post-emergence crop plant compatibility, greenhouse pot test; details: 1.25 g/ha, vs untreated controls
How it was run: (§3)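 Greenhouse pot test; post-emergence foliar spray at one-leaf stage, WP or EC in water + 0.5% additive, 600 l/ha. Visual rating after ~3 wk, % relative to untreated (0–100%).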

[8] = test system: Triticum aestivum (TRZAS); test: as above; details: vs untreated controls
How it was run: as §3

Glycine max (GLXMA) = test: as above
How it was run: as §3

`COCCOC(=O)COc1ccccc1Oc1cc(-n2c(=O)cc(C(F)(F)F)n(C)c2=O)c(F)cc1[N+](=O)[O-]` [I.6-1, 2-Methoxyethyl (2-{4-fluoro-5-[3-methyl-2,6-dioxo-4-(trifluoromethyl)-3,6-dihydropyrimidin-1(2H)-yl]-2-nitrophenoxy}phenoxy)acetate] gave a pest or weed control at 5 g/ha [1] of 100%, a pest or weed control at 20 g/ha [1] of 100% and a pest or weed control at 5 g/ha [2] of 80%. For the same molecule, the pest or weed control at 20 g/ha [2] was 100%, the “Post-emergence action at 1.25 g/ha against ECHCG in %” value [3] was 90% and the pest or weed control at 5 g/ha [3] was 90%. It also gave a pest or weed control at 20 g/ha [3] of 100%, a pest or weed control at 20 g/ha (Setaria viridis (SETVI)) of 100% and a pest or weed control at 1.25 g/ha (Setaria viridis (SETVI)) of 100%. For the same molecule, the pest or weed control at 5 g/ha (Setaria viridis (SETVI)) was 100%, the “Post-emergence action against ORYSA (crop plant compatibility)” value (Oryza sativa (ORYSA); 1.25 g/ha) was 0% and the “Post-emergence action against ORYSA (crop plant compatibility)” value (Oryza sativa (ORYSA); 5 g/ha) was 10%. The “Post-emergence action against ORYSA in %” value (Oryza sativa (ORYSA); 20 g/ha, crop plant compatibility) was 20%, the pest or weed control at 1.25 g/ha [4] was 100% and the pest or weed control at 5 g/ha [4] was 100%. It also gave a pest or weed control at 20 g/ha [4] of 100%, a pest or weed control at 1.25 g/ha [5] of 100% and a pest or weed control at 5 g/ha [5] of 100%. The pest or weed control at 20 g/ha [5] was 100%, the pest or weed control at 20 g/ha (Lolium rigidum (LOLRI)) was 80% and the pest or weed control at 5 g/ha ([6]; dosage 5 g/ha) was 100%. The pest or weed control at 20 g/ha [6] was 100%, the pest or weed control at 5 g/ha [7] was 100% and the pest or weed control at 20 g/ha [7] was 100%. The pest or weed control at 20 g/ha (Avena fatua (AVEFA)) was 100%, the pest or weed control at 5 g/ha (Veronica persica (VERPE)) was 100% and the pest or weed control at 20 g/ha (Veronica persica (VERPE)) was 100%. It also gave a pest or weed control at 1.25 g/ha (Viola tricolor (VIOTR)) of 100%, a pest or weed control at 5 g/ha (Viola tricolor (VIOTR)) of 100% and a pest or weed control at 20 g/ha (Viola tricolor (VIOTR)) of 100%. The “Post-emergence action against ZEAMX (crop plant compatibility)” value (Zea mays (ZEAMX)) was 20%, the “Post-emergence action against TRZAS (crop plant compatibility)” value (“Post-emergence action against TRZAS” below) ([8]; 1.25 g/ha) was 10% and the “Post-emergence action against TRZAS” value ([8]; 5 g/ha) was 20%. For the same molecule, the “Post-emergence action against GLXMA in %” value (Glycine max (GLXMA); 1.25 g/ha) was 20%.
`Cn1c(C(F)(F)F)cc(=O)n(-c2cc(Oc3ccccc3OCC(=O)OCC#N)c([N+](=O)[O-])cc2F)c1=O` [I.6-176, Cyanomethyl (2-{4-fluoro-5-[3-methyl-2,6-dioxo-4-(trifluoromethyl)-3,6-dihydropyrimidin-1(2H)-yl]-2-nitrophenoxy}phenoxy)acetate] gave a pest or weed control at 5 g/ha [1] of 80%, a pest or weed control at 20 g/ha [1] of 100% and a pest or weed control at 5 g/ha [2] of 80%. The pest or weed control at 20 g/ha [2] was 90%, the “Post-emergence action at 1.25 g/ha against ECHCG in %” value [3] was 100% and the pest or weed control at 5 g/ha [3] was 100%. It also gave a pest or weed control at 20 g/ha [3] of 100%, a pest or weed control at 20 g/ha (Setaria viridis (SETVI)) of 100% and a pest or weed control at 1.25 g/ha (Setaria viridis (SETVI)) of 100%. The pest or weed control at 5 g/ha (Setaria viridis (SETVI)) was 100%, the “Post-emergence action against ORYSA (crop plant compatibility)” value (Oryza sativa (ORYSA); 1.25 g/ha) was 0% and the “Post-emergence action against ORYSA (crop plant compatibility)” value (Oryza sativa (ORYSA); 5 g/ha) was 20%. It also gave a pest or weed control at 1.25 g/ha [4] of 100%, a pest or weed control at 5 g/ha [4] of 100% and a pest or weed control at 20 g/ha [4] of 100%. It also gave a pest or weed control at 1.25 g/ha [5] of 100%, a pest or weed control at 5 g/ha [5] of 100% and a pest or weed control at 20 g/ha [5] of 100%. For the same molecule, the pest or weed control at 20 g/ha (Lolium rigidum (LOLRI)) was 90%, the pest or weed control at 20 g/ha [6] was 100% and the pest or weed control at 1.25 g/ha ([7]; dosage 1.25 g/ha) was 80%. For the same molecule, the pest or weed control at 5 g/ha [7] was 100%, the pest or weed control at 20 g/ha [7] was 100% and the pest or weed control at 20 g/ha (Avena fatua (AVEFA)) was 80%. For the same molecule, the pest or weed control at 1.25 g/ha (Veronica persica (VERPE); 1.25 g/ha) was 80%, the pest or weed control at 5 g/ha (Veronica persica (VERPE)) was 90% and the pest or weed control at 20 g/ha (Veronica persica (VERPE)) was 100%. It also gave a pest or weed control at 1.25 g/ha (Viola tricolor (VIOTR)) of 100%, a pest or weed control at 5 g/ha (Viola tricolor (VIOTR)) of 100% and a pest or weed control at 20 g/ha (Viola tricolor (VIOTR)) of 100%. The “Post-emergence action against ZEAMX (crop plant compatibility)” value (Zea mays (ZEAMX)) was 10%, the “Post-emergence action against TRZAS” value ([8]; 1.25 g/ha) was 20% and the “Post-emergence action against TRZAS” value ([8]; 5 g/ha) was 20%. For the same molecule, the “Post-emergence action against TRZAS” value ([8]; 20 g/ha) was 20%, the “Post-emergence action against GLXMA in %” value (Glycine max (GLXMA); 1.25 g/ha) was 20% and the “Post-emergence action against GLXMA in %” value (Glycine max (GLXMA); 5 g/ha) was 20%.

From patent US20240025862A1, “SUBSTITUTED N-PHENYLURACILS AND SALTS THEREOF, AND USE THEREOF AS HERBICIDAL ACTIVE SUBSTANCES” (Bayer Aktiengesellschaft, priority 2020, published 2024)
